This passage reports MIC results from ChEMBL document CHEMBL4334493, “14- and 15-membered lactone macrolides and their analogues and hybrids: structure, molecular mechanism of action and biological activity” (Eur J Med Chem, 2019).

≈ marks a conversion by molar mass, not a printed value. Some results are limits rather than exact numbers.

In assay [1] the test system is Escherichia coli. The experiment in a line: Antibacterial activity against Escherichia coli ATCC 25922 by NCCLS protocol based broth microdilution method. The assay is classed as functional.
The nature of assay [2]: Antibacterial activity against Salmonella choleraesuis 14028 by NCCLS protocol based broth microdilution method. The class given is functional, Salmonella enterica subsp. enterica serovar Choleraesuis. The settings on record: Salmonella enterica. Background: In broth dilution the organism is exposed to a series of concentrations in liquid medium.
For assay [3], the system named is Staphylococcus epidermidis. The experiment in a line: Antibacterial activity against Staphylococcus epidermidis ATCC 12228 by NCCLS protocol based broth microdilution method. The assay is classed as functional.
The test system of assay [4] is Streptococcus pneumoniae. Kind of assay: Antibacterial activity against Streptococcus pneumoniae 49619 by NCCLS protocol based broth microdilution method. The class given is functional.
Assay [5] deals with Staphylococcus aureus. The experiment in a line: Antibacterial activity against Staphylococcus aureus ATCC 25923 by NCCLS protocol based broth microdilution method. The assay is classed as functional.
For assay [6], the system named is Pseudomonas aeruginosa. The experiment in a line: Antibacterial activity against Pseudomonas aeruginosa 27853 by NCCLS protocol based broth microdilution method. The class given is functional.
For assay [7], the system named is Klebsiella pneumoniae. Kind of assay: Antibacterial activity against Klebsiella pneumoniae 13883 by NCCLS protocol based broth microdilution method. The assay is classed as functional.
For assay [8], the system named is Enterococcus faecalis. The experiment in a line: Antibacterial activity against Enterococcus faecalis ATCC 29212 by NCCLS protocol based broth microdilution method. The class given is functional.
The subject of assay [9] is Haemophilus influenzae. Kind of assay: Antibacterial activity against Haemophilus influenzae 49247. The class given is functional.
For assay [10], the system named is Haemophilus influenzae. The experiment in a line: Antibacterial activity against Haemophilus influenzae 33929. The class given is functional.
Assay [11] has as its system Streptococcus pneumoniae. The experiment in a line: Antibacterial activity against Streptococcus pneumoniae ATCC 49619. The assay is classed as functional.
The test system of assay [12] is Streptococcus pneumoniae. Kind of assay: Antibacterial activity against Streptococcus pneumoniae 655 mefA. The assay is classed as functional.
Assay [13] has as its system Escherichia coli. Kind of assay: Antibacterial activity against Escherichia coli DK A2058G. The assay is classed as functional.
In assay [14] the test system is Escherichia coli. The experiment in a line: Antibacterial activity against Escherichia coli DK pKK 3535. The assay is classed as functional.
Assay [15] has as its system Klebsiella pneumoniae. Kind of assay: Antibacterial activity against Klebsiella pneumoniae ATCC 10031. The class given is functional.
The test system of assay [16] is Haemophilus influenzae. The experiment in a line: Antibacterial activity against Haemophilus influenzae ATCC 49247. The class given is functional.
For assay [17], the system named is Enterococcus faecalis. The experiment in a line: Antibacterial activity against Enterococcus faecalis ATCC 29212. The class given is functional.
Assay [18] deals with Staphylococcus aureus. Kind of assay: Antibacterial activity against Staphylococcus aureus ATCC 29213. The class given is functional.
Assay [19] deals with Streptococcus pyogenes. Kind of assay: Antibacterial activity against Streptococcus pyogenes ATCC 19615. The assay is classed as functional.
The test system of assay [20] is Enterococcus faecalis. Kind of assay: Antibacterial activity against Enterococcus faecalis UN-047 VRE expressing ErmS. The assay is classed as functional.
Assay [21] concerns Streptococcus pneumoniae. The experiment in a line: Antibacterial activity against Streptococcus pneumoniae UNT-042 expressing ErmB/MefA. The class given is functional.
In assay [22] the test system is Staphylococcus aureus. Kind of assay: Antibacterial activity against methicillin resistant Staphylococcus aureus MP513 expressing cErmA. The class given is functional.
For assay [23], the system named is Escherichia coli. Kind of assay: Antibacterial activity against Escherichia coli ATCC 25922. The assay is classed as functional.
Assay [24] concerns Staphylococcus aureus. The experiment in a line: Antibacterial activity against methicillin resistant Staphylococcus aureus NRS384 expressing MsrA. The class given is functional.
Assay [25] relates to Pseudomonas aeruginosa. The experiment in a line: Antibacterial activity against Pseudomonas aeruginosa ATCC 27853. The class given is functional.
The test system of assay [26] is Acinetobacter baumannii. Kind of assay: Antibacterial activity against Acinetobacter baumannii ATCC 19606. The assay is classed as functional. Conditions: ATCC 19606 = CIP 70.34 = JCM 6841.
The subject of assay [27] is Staphylococcus aureus. The experiment in a line: Antibacterial activity against Staphylococcus aureus BAA-977 expressing iermA. The assay is classed as functional.
The subject of assay [28] is Staphylococcus aureus. The experiment in a line: Antibacterial activity against Staphylococcus aureus 10 after 24 hrs by broth microdilution method. The class given is functional. The settings on record: Staphylococcus aureus, 10, 24 h.
In assay [29] the test system is Streptococcus pneumoniae. The experiment in a line: Antibacterial activity against Streptococcus pneumoniae ATCC 49619 after 24 hrs by broth microdilution method. The settings on record: ATCC 49619, 24 h. The assay is classed as functional.
The test system of assay [30] is Histophilus somni. Kind of assay: Antibacterial activity against Histophilus somni ATCC 700025 after 24 hrs by broth microdilution method. Conditions: ATCC 700025, 24 h. The class given is functional.
Assay [31] relates to Mannheimia haemolytica. Kind of assay: Antibacterial activity against Mannheimia haemolytica IATCC 33396 after 24 hrs by broth microdilution method. The assay is classed as functional. The settings on record: IATCC 33396, 24 h.
In assay [32] the test system is Cutibacterium acnes. The experiment in a line: Antibacterial activity against Propionibacterium acnes ATCC 6919 after 24 hrs by broth microdilution method. The assay is classed as functional. Conditions: ATCC 6919, 24 h.
Assay [33] has as its system Pasteurella multocida. Kind of assay: Antibacterial activity against Pasteurella multocida IATCC 11039 after 24 hrs by broth microdilution method. The class given is functional. The settings on record: IATCC 11039, 24 h.
Assay [34] relates to Escherichia coli. The experiment in a line: Antibacterial activity against Escherichia coli ECM1888 after 24 hrs by broth microdilution method. The settings on record: ECM1888, 24 h. The assay is classed as functional.
In assay [35] the test system is Enterococcus faecium. Kind of assay: Antibacterial activity against Enterococcus faecium 568 after 24 hrs by broth microdilution method. The assay is classed as functional. The settings on record: Enterococcus faecium, 568, 24 h.
For assay [36], the system named is Staphylococcus epidermidis. Kind of assay: Antibacterial activity against Staphylococcus epidermidis ATCC 12228 after 24 hrs by broth microdilution method. Conditions: ATCC 12228, 24 h. The class given is functional.
For assay [37], the system named is Staphylococcus aureus. Kind of assay: Antibacterial activity against Staphylococcus aureus ATCC 25923 after 24 hrs by broth microdilution method. The settings on record: ATCC 25923, 24 h. The assay is classed as functional.
The subject of assay [38] is Enterococcus faecium. The experiment in a line: Antibacterial activity against Enterococcus faecium 569 after 24 hrs by broth microdilution method. The assay is classed as functional. The settings on record: Enterococcus faecium, 569, 24 h.
Assay [39] deals with Escherichia coli. The experiment in a line: Antibacterial activity against Escherichia coli leuS ANA395 after 24 hrs by broth microdilution method. The class given is functional. The settings on record: leuS ANA395, 24 h.
Assay [40] deals with Streptococcus pyogenes. The experiment in a line: Antibacterial activity against Streptococcus pyogenes ATCC 19615 after 24 hrs by broth microdilution method. The class given is functional. Conditions: ATCC 19615, 24 h.

In the case of `CC[C@H]1OC(=O)[C@H](C)[C@@H](O[C@H]2C[C@@](C)(OC)[C@@H](OC(=O)NC[C@H]3OB(O)c4ccccc43)[C@H](C)O2)[C@H](C)[C@@H](O[C@@H]2O[C@H](C)C[C@H](N(C)C)[C@H]2O)[C@](C)(OC)C[C@@H](C)C(=O)[C@H](C)[C@@H](O)[C@]1(C)O`, the MIC in assay [1] is > 64 µg/mL; in [2], > 64 µg/mL; in assay [3], 0.5 µg/mL (≈ 0.534 µM); in [4] it was 0.5 µg/mL (≈ 0.534 µM); in [5], 2 µg/mL (≈ 2.13 µM); in [6], > 64 µg/mL. Besides, the MIC in assay [7] is > 64 µg/mL; in [8] it was 4 µg/mL (≈ 4.27 µM).

Consider `CC[C@H]1OC(=O)[C@H](C)C(=O)[C@H](C)[C@@H](O[C@@H]2O[C@H](C)C[C@H](N(C)C)[C@H]2O)[C@@]2(C)C[C@@H](C)/C(=N\C(C)=O)[C@H](C)[C@@H](OC/C(=N\OCc3ccc(-c4ccno4)cn3)CO2)[C@]1(C)O`, for which the MIC in assay [9] and in [10] was 4 µg/mL (≈ 4.75 µM) each time.

`CC[C@H]1OC(=O)[C@@](C)(F)C(=O)[C@H](C)[C@@H](O[C@@H]2O[C@H](C)C[C@H](N(C)C)[C@H]2O)[C@](C)(OC)C[C@@H](C)C(=O)[C@H](C)[C@H]2N(CCCCn3nncc3-c3cccs3)C(=O)O[C@]12C`: the MIC worked out at 1 µg/mL (≈ 1.2 µM) in assay [11], 0.5 µg/mL (≈ 0.598 µM) in [12], 0.004 µg/mL (≈ 0.00478 µM) in assay [13] and 1 µg/mL (≈ 1.2 µM) in [14].

Regarding `CC[C@H]1OC(=O)[C@H](C)C(=O)[C@H](C)[C@@H](O[C@@H]2O[C@H](C)C[C@H](N(C)C)[C@H]2O)[C@](C)(OC)C[C@@H](C)CN[C@H](C)[C@H]2N(CCCCn3cc(-c4cccc(N)c4)nn3)C(=O)O[C@]12C`, the MIC is ≤ 0.03 µg/mL in assay [11]; 2 µg/mL (≈ 2.42 µM) in [15]; 2 µg/mL (≈ 2.42 µM) in assay [16]; 0.125 µg/mL (≈ 0.151 µM) in assay [17]; 0.5 µg/mL (≈ 0.604 µM) in [18]; ≤ 0.03 µg/mL in assay [19]. The MIC was > 64 µg/mL in assay [20]; 2 µg/mL (≈ 2.42 µM) in assay [21]; > 64 µg/mL in assay [22]; 4 µg/mL (≈ 4.83 µM) in assay [23]; 1 µg/mL (≈ 1.21 µM) in assay [24]; 64 µg/mL (≈ 77.3 µM) in assay [25]. Moreover, the values for the MIC in assay [26] and in [27] were 4 µg/mL (≈ 4.83 µM) and 0.5 µg/mL (≈ 0.604 µM), respectively.

For the compound `CC[C@H]1OC(=O)[C@@](C)(F)C(=O)[C@H](C)[C@@H](O[C@@H]2O[C@H](C)C[C@H](N(C)C)[C@H]2O)[C@](C)(OC)C[C@@H](C)C(=O)[C@H](C)[C@H]2N(CCCCn3cc(-c4cccs4)nn3)C(=O)O[C@]12C`, the MIC in [11] was determined as 1 µg/mL (≈ 1.2 µM); in assay [12], 0.5 µg/mL (≈ 0.598 µM); in assay [13] it was 0.004 µg/mL (≈ 0.00478 µM); in assay [14], 1 µg/mL (≈ 1.2 µM).

As to `CC[C@H]1OC(=O)[C@H](C)[C@@H](O[C@H]2C[C@@](C)(OC)[C@@H](OC(=O)NCCCNC(=O)CCc3cccc4c3B(O)OC4)[C@H](C)O2)[C@H](C)[C@@H](O[C@@H]2O[C@H](C)C[C@H](N(C)C)[C@H]2O)[C@](C)(O)C[C@@H](C)CN(C)[C@H](C)[C@H]2OC(=O)O[C@@]21C`, the MIC in [28] is 0.5 µg/mL (≈ 0.47 µM); in assay [29], 0.13 µg/mL (≈ 0.122 µM); in assay [30], 4 µg/mL (≈ 3.76 µM); in [31], 8 µg/mL (≈ 7.53 µM); in assay [32], ≤ 0.12 µg/mL; in assay [33], 4 µg/mL (≈ 3.76 µM). In addition, the MIC in [34] stood at 8 µg/mL (≈ 7.53 µM); in assay [35] it was 0.13 µg/mL (≈ 0.122 µM); in assay [36] it was 8 µg/mL (≈ 7.53 µM); in assay [37], 4 µg/mL (≈ 3.76 µM); in assay [38], 2 µg/mL (≈ 1.88 µM); in assay [39], 8 µg/mL (≈ 7.53 µM). In [40], this compound displayed an MIC of 0.25 µg/mL (≈ 0.235 µM).
